Laboratory results: ChEMBL document CHEMBL3217495, “Interaction of long telomeric DNAs with macrocyclic hexaoxazole as a G-quadruplex ligand” (Medchemcomm, 2013)
Calls of active or inactive are those of the source. The calls are words filed in the database; no cut-off is given here.

Experiments:
[1] = Binding affinity to telo24 G-quadruplex DNA (unknown origin) assessed as appearance of new bands with longer migration distances after 14 hrs by electrophoresis mobility shift assay
[2] = Binding affinity to telo72 G-quadruplex DNA (unknown origin) assessed as appearance of new bands with longer migration distances after 14 hrs by electrophoresis mobility shift assay
[3] = Binding affinity to telo24 G-quadruplex DNA (unknown origin) assessed as compound:telo24 complex formation at ratio of 2:1 after 14 hrs by electrophoresis mobility shift assay
[4] = Stabilization of telo48 G-quadruplex DNA (unknown origin) assessed as melting temperature at 8 eq. by spectropolarimeter analysis in presence of KCl (Rvb= 57 degC)
[5] = Binding affinity to telo48 G-quadruplex DNA (unknown origin) assessed as change of topology from hybrid-type to anti-parallel form by CD spectrometry in presence of KCl
[6] = Binding affinity to telo48 G-quadruplex DNA (unknown origin) assessed as appearance of new bands with longer migration distances after 14 hrs by electrophoresis mobility shift assay
[7] = Binding affinity to telo96 G-quadruplex DNA (unknown origin) assessed as appearance of new bands with longer migration distances after 14 hrs by electrophoresis mobility shift assay
[8] = Stabilization of telo96 G-quadruplex DNA (unknown origin) assessed as melting temperature at 16 eq. by spectropolarimeter analysis in presence of KCl (reference value: 55 degC)
[9] = Binding affinity to telo96 G-quadruplex DNA (unknown origin) assessed as change of topology from hybrid-type to anti-parallel form by CD spectrometry in presence of KCl
[10] = Binding affinity to telo24 G-quadruplex DNA (unknown origin) assessed as change of topology from hybrid-type to anti-parallel form by CD spectrometry in presence of KCl
[11] = Stabilization of telo24 G-quadruplex DNA (unknown origin) assessed as melting temperature at 4 eq. by spectropolarimeter analysis in presence of KCl (reference value: 59 degC)
[12] = Stabilization of telo72 G-quadruplex DNA (unknown origin) assessed as melting temperature at 12 eq. by spectropolarimeter analysis in presence of KCl (reference value: 55 degC)
[13] = Binding affinity to telo72 G-quadruplex DNA (unknown origin) assessed as change of topology from hybrid-type to anti-parallel form by CD spectrometry in presence of KCl

In the case of `NCCCC[C@@H]1NC(=O)c2coc(n2)-c2coc(n2)-c2coc(n2)[C@H](CCCCN)NC(=O)c2coc(n2)-c2coc(n2)-c2coc1n2`, the Activity [1] is reported as “Active”, the Activity [2] is reported as “Active” and the Activity [3] is reported as “Active”. The Tm [4] was 76 °C, the Activity [5] was “Active” and the Activity [6] was “Active”. For the same compound, the Activity [7] was “Active”, the Tm [8] was 70 °C and the Activity [9] was “Active”. The Activity [10] was “Active”, the Tm [11] was 75 °C and the Tm [12] was 73 °C. The Activity [13] was “Active”.
